Laboratory results from patent US9034866B2 (Genentech, Inc., priority 2012, dated 2015).
Read-outs that look alike come from different tables or passages of the source.

How the values were obtained:
[1] = system: p52 (NF-kB2) nuclear translocation in HeLa cells; assay: p52 nuclear translocation assay (non-classical NF-kB signaling), high content imaging; format: cell-based; conditions: 100 ng/mL anti-lymphotoxin beta receptor antibody for 5 hours, read-out: p52 HeLa Transloc Assay (IC50)
Outline: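 HeLa cells in 10% FBS medium were treated with compound (0.2% DMSO final), then stimulated 5 h with 100 ng/mL anti-lymphotoxin beta receptor antibody. After fixation, cells were immunostained for p52 (2 ug/mL antibody) with DRAQ5 nuclear stain and imaged by high-content imaging. IC50 in µM was derived from the nuclear/cytoplasmic signal ratio.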

[2] = system: REL-A (p65) nuclear translocation in HeLa cells; assay: REL-A nuclear translocation assay (classical NF-kB signaling), high content imaging; format: cell-based; conditions: compounds 4.5 hours, then 10 ng/mL TNF-α for 30 minutes, read-out: REL-A HeLa Transloc Assay (IC50)
Outline: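 HeLa cells in 10% FBS medium preincubated with compounds (0.2% DMSO final) for 4.5 hours, then stimulated with 10 ng/mL TNF-α for 30 minutes. Fixed cells stained with 400 ng/mL anti-REL-A antibody, Alexa488 secondary and DRAQ5; translocation quantified by imaging as nuclear to cytoplasmic signal ratio.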

[3] = target: nuclear factor-kappa B (NF-kB)-inducing kinase (NIK) (Homo sapiens (Human), UniProt Q99558); assay: NIK Enzyme Inhibition Assay (Transcreener ADP fluorescence polarization); format: biochemical; conditions: read-out: NIK ADP-FP (Ki uM)
nuclear factor-kappa B (NF-kB)-inducing kinase (NIK), sequence (Q99558 whole entry): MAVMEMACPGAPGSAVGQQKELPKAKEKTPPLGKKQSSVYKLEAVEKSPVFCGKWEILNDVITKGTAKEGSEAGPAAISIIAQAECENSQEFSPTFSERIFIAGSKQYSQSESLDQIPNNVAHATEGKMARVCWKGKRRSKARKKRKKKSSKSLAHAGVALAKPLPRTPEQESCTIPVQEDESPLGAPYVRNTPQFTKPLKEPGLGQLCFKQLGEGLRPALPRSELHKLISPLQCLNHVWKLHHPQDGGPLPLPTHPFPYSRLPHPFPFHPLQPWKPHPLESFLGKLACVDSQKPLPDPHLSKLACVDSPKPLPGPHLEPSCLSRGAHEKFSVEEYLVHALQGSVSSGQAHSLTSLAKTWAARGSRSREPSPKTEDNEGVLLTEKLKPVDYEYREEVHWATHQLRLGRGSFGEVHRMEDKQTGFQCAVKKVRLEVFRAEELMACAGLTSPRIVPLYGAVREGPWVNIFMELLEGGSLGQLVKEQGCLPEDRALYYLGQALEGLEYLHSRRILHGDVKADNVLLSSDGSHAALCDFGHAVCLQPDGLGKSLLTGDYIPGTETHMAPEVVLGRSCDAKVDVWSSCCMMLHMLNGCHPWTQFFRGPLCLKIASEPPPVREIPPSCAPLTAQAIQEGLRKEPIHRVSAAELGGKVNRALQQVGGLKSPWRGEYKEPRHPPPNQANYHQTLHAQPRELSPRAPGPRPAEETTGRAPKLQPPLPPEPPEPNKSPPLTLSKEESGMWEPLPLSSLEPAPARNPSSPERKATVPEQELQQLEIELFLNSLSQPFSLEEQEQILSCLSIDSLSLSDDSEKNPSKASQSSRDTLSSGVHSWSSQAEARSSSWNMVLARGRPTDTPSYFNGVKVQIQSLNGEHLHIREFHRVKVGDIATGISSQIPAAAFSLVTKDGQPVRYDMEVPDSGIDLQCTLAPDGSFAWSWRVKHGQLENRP
Outline: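 Baculovirus/insect-cell-expressed NIK (0.2-1 nM) incubated with compounds 1-3.5 h at 10 uM ATP. Buffer: 50 mM HEPES pH 7.2, 10 mM MgCl2, 2 mM DTT, 1% DMSO. ADP detected by Transcreener fluorescence polarization (ADP antibody, AlexaFluor 633 tracer) after EDTA quench.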

[4] = purified NIK 0.2-1 nM, 10 uM ATP, Morrison's quadratic equation

SMILES | IC50 ([1]; Homo sapiens, HeLa, 5 h) | IC50 ([2]; Homo sapiens, HeLa) | Ki [3, 4] | IC50 ([1]; Homo sapiens) | IC50 ([2]; Homo sapiens) | Ki [3] | IC50 [1] | IC50 [2]
Cc1cc([C@](C)(O)C#Cc2ccc3c(c2)-c2nc(C(N)=O)c(CN4CCOCC4)n2CCO3)no1 [Example 103, 9-[(R)-3-hydroxy-3-(5-methyl-isoxazol-3-yl)-but-1-ynyl]-3-morpholin-4-ylmeth-yl-4,5-dihydro-6-oxa-1,3a-diaza-ben-zo[e]azulene-2-carboxylic acid amide] | 104 nM | 20 µM | 0.002 µM |  |  |  |  | 
CNC(=O)c1c(C(N)=O)nc2n1C1CC(C1)c1ccc(C#C[C@@](C)(O)c3cc(C)on3)cc1-2 (racemic) | 1300 nM | 1.8 µM | 0.00061 µM |  |  |  |  | 
CC(C)(O)C#Cc1cc2c(cc1F)C1CC(C1)n1c-2nc(C(N)=O)c1C1(O)COC1 [Example 339, 9-fluoro-10-(3-hydroxy-3-methyl-but-1-ynyl)-3-(3-hydroxyoxetan-3-yl)-5,6,7,12-tetrahydro-5,7-methanobenzo[c]imi-dazo[1,2-a]azepine-2-carboxamide] |  |  | 0.007 µM | 2600 nM | > 20 µM |  |  | 
CN1CCC(O)(C#Cc2cc3c(cc2F)OCCc2sc(C(N)=O)nc2-3)C1=O (stereo not drawn) | 450 nM | > 20 µM | 0.00053 µM |  |  |  |  | 
Cc1cc(-c2c(C(N)=O)nc3n2CCOc2cc(F)c(C#C[C@@](C)(O)c4noc(C)n4)cc2-3)[nH]n1 | 2500 nM | > 20 µM | 0.0087 µM |  |  |  |  | 
CN1CC[C@@](O)(C#Cc2ccc3c(c2)-c2nc(C(N)=O)c(C(F)(F)F)n2CCO3)C1=O | 442 nM | > 20 µM | 0.00072 µM |  |  |  |  | 
CN1CC[C@@](O)(C#Cc2ccc3c(c2)-c2nc(C(N)=O)cn2C2CC3C2)C1=O | 1500 nM | 20 µM |  |  |  | 0.0012 µM |  | 
Cc1cc([C@](C)(O)C#Cc2ccc3c(c2)-c2nc(C(N)=O)sc2CCO3)no1 [Example 7, 9-[(R)-3-hydroxy-3-(5-methyl-isoxazol-3-yl)-but-1-ynyl]-4,5-dihydro-6-oxa-3-thia-1-aza-benzo[e]azulene-2-carboxylic acid amide] | 39.5 nM | 20 µM | 0.0002 µM |  |  |  |  | 
Cc1nc([C@](C)(O)C#Cc2cc3c(cc2F)C2CC(C2)n2c-3nc(C(N)=O)c2C)no1 | 1100 nM | > 20 µM | 0.0007 µM |  |  |  |  | 
CNC(=O)c1c(C(N)=O)nc2n1C1CC(C1)c1cc(F)c(C#CC3(O)CCCC3)cc1-2 | 375 nM | > 20 µM | 0.00012 µM |  |  |  |  | 
Cc1nc([C@](C)(O)C#Cc2cc3c(cc2F)OCCc2sc(C(N)=O)nc2-3)no1 | 171 nM | 20 µM | 0.001 µM |  |  |  |  | 
Cc1cc([C@](C)(O)C#Cc2ccc3c(c2)-c2nc(C(N)=O)cn2CCO3)no1 [Example 8, 9-[(R)-3-Hydroxy-3-(5-methyl-isoxazol-3-yl)-but-1-ynyl]-4,5-dihydro-6-oxa-1,3a-diaza-benzo[e]azulene-2-carboxylic acid amide] | 672 nM | 20 µM | 0.001 µM |  |  |  |  | 
CN1CC[C@@](O)(C#Cc2cc3c(cc2F)C2CC(C2)n2c-3nc(C(N)=O)c2C(C)(C)O)C1=O [Example 327, 9-fluoro-3-(1-hydroxy-1-methyl-ethyl)-10-[2-[(3R)-3-hydroxy-1-methyl-2-oxo-pyrrolidin-3-yl]ethynyl]-5,6,7,12-tet-rahydro-5,7-methanobenzo[c]imidazo[1,2-a]azepine-2-carboxamide] | 7800 nM | > 20 µM | 0.00685 µM |  |  |  |  | 
CC(C)(O)C#Cc1cc2c(cc1F)OCCn1c-2nc(C(N)=O)c1C(=O)NCC#N | 77 nM | 20 µM | 0.0004 µM |  |  |  |  | 
Cc1cc([C@](C)(O)C#Cc2cc3c(cc2F)C2CC(C2)c2[nH]c(C(N)=O)nc2-3)no1 | 477 nM | > 20 µM | 0.0002 µM |  |  |  |  | 
CC(C)(O)c1c(C(N)=O)nc2n1C1CC(C1)c1cc(F)c(C#CC3(O)CCCC3)cc1-2 [Example 324, 9-fluoro-10-[2-(1-hydroxycyclopentyl)ethy-nyl]-3-(1-hydroxy-1-methyl-ethyl)-5,6,7,12-tetrahydro-5,7-methanobenzo[c]imi-dazo[1,2-a]azepine-2-carboxamide] |  |  |  |  |  | 0.0089 µM | 1100 nM | > 20 µM

SMILES | IC50 ([1]; Homo sapiens, HeLa, 5 h) | IC50 ([2]; Homo sapiens, HeLa) | Ki [3, 4] | IC50 ([1]; Homo sapiens) | IC50 ([2]; Homo sapiens) | Ki [3] | IC50 [1] | IC50 [2]
NC(=O)c1cn2c(n1)-c1cc(C#CC3(O)CCNC3=O)c(F)cc1OCC2 (racemic) | 16000 nM | > 20 µM | 0.0032 µM |  |  |  |  | 
Cc1nc([C@](C)(O)C#Cc2ccc3c(c2)-c2nc(C(N)=O)n(C)c2C2CC3C2)no1 [Example 426] | 406 nM | > 20 µM | 0.0018 µM |  |  |  |  | 
Cc1cc([C@](C)(O)C#Cc2ccc3c(c2)-c2nc(C(N)=O)c(C(=O)NC4CCOCC4)n2C2CC3C2)no1 (racemic) | 284 nM | 20 µM | 0.0011 µM |  |  |  |  | 
Cc1cc([C@](C)(O)C#Cc2cc3c(cc2F)C2CC(C2)n2c-3nc(C(N)=O)c2-c2cnn(CC(C)(C)O)c2)no1 (racemic) | 1900 nM | > 20 µM | 0.00071 µM |  |  |  |  | 
NC(=O)c1cn2c(n1)-c1cc(C#CC3(O)CCc4cccnc43)c(F)cc1OCC2 (racemic) | 1500 nM | > 20 µM | 0.0009 µM |  |  |  |  | 
CC(C)(O)C#Cc1cc2c(cc1F)C1CC(C1)n1c-2nc(C(N)=O)c1C(F)(F)F | 2600 nM | > 20 µM | 0.0095 µM |  |  |  |  | 
CNC(=O)c1c(C(N)=O)nc2n1CCOc1cc(F)c(C#C[C@@](C)(O)c3cc(C)on3)cc1-2 [Example 99, 8-fluoro-9-[(R)-3-hydroxy-3-(5-methyl-isoxazol-3-yl)-but-1-ynyl]-4,5-dihydro-6-oxa-1,3a-diaza-benzo[e]azulene-2,3-di-carboxylic acid 2-amide 3-methylamide] | 62.5 nM | 20 µM |  |  |  | 0.001 µM |  | 
CC(O)(C#Cc1cc2c(cc1F)OCCc1sc(C(N)=O)nc1-2)CO (stereo not drawn) | 1100 nM | 20 µM | 0.003 µM |  |  |  |  | 
CC(C)(O)C#Cc1ccc2c(c1)-c1nc(C(N)=O)c(-c3nc(C4CC4)n[nH]3)n1CCO2 (racemic) | 594 nM | > 20 µM | 0.0024 µM |  |  |  |  | 
Cc1cc([C@](C)(O)C#Cc2cc3c(cc2F)C2CC(C2)n2c-3nc(C(N)=O)c2C(C)(C)O)no1 [Example 326] | 1200 nM | 5.6 µM | 0.0057 µM |  |  |  |  | 
CNC(=O)c1c(C(N)=O)nc2n1C1CC(C1)c1cc(F)c(C#CC(C)(C)O)cc1-2 (racemic) | 358 nM | > 20 µM | 0.0022 µM |  |  |  |  | 
Cc1cc([C@](C)(O)C#Cc2ccc3c(c2)-c2nc(C(N)=O)c(Cc4ccnn4C)n2C2CC3C2)no1 | 1700 nM | > 20 µM | 0.0002 µM |  |  |  |  | 
Cn1nccc1Cn1c(C(N)=O)nc2c1C1CC(C1)c1cc(F)c(C#CC(C)(C)O)cc1-2 [Example 391] | 36.8 nM | 20 µM | 0.002 µM |  |  |  |  | 
CC(C)(O)C#Cc1ccc2c(c1)-c1nc(C(N)=O)c(C(F)(F)F)n1C1CC2C1 (racemic) [Example 206] | 4400 nM | > 20 µM | 0.026 µM |  |  |  |  | 
Cc1c(C(N)=O)nc2n1C1CC(C1)c1cc(F)c(C#C[C@@](C)(O)c3ncccn3)cc1-2 [Example 321, 9-fluoro-10-[(3R)-3-hydroxy-3-pyrim-idin-2-yl-but-1-ynyl]-3-methyl-5,6,7,12-tet-rahydro-5,7-methanobenzo[c]imidazo[1,2-a]azepine-2-carboxamide] | 3000 nM | > 20 µM | 0.012 µM |  |  |  |  | 
